Pest or weed control data for 8 molecules are collected here from patent US20230017045A1, “PYRIDINE AND PYRIMIDINE CARBOXYLATE HERBICIDES AND METHODS OF USE THEREOF” (Dow AgroSciences LLC, priority 2017, published 2023).

Molecules are shown by their SMILES. Where two headings read alike, the source gives them in different places.

The assay relates to test plant species. Kind of assay: Post-emergent herbicidal activity test (greenhouse, foliar spray, visual growth reduction). The format is in vivo. To be noted: post-emergence, 336 h, 140 g ai/ha, 14 days after application. How it is done:
Post-emergent Test: Seeds or nutlets of the desired test plant species were planted in Sun Gro Metro-Mix® 360 planting mixture, which typically has a pH of 6.0 to 6.8 and an organic matter content of about 30 percent, in plastic pots with a surface area of 64 square centimeters. In some aspects, to ensure good germination and healthy plants, a fungicide treatment and/or other chemical or physical treatment was applied. The plants were grown for 7-21 d in a greenhouse with an approximate 15 h photoperiod which was maintained at 23-29° C. during the day and 22-28° C. during the night. Nutrients and water were added on a regular basis and supplemental lighting was provided with overhead metal halide 1000-Watt lamps as necessary. Plants were used for testing when they reached the first or second true leaf stage. A weighed amount, determined by the highest rate to be tested, of each test compound was placed in a 25 mL glass vial and was dissolved in 4 mL of a 97:3 v/v mixture of acetone and DMSO to obtain concentrated stock solutions. […] The concentrated stock solutions obtained were diluted with 20 mL of an aqueous mixture containing acetone, water, isopropyl alcohol, DMSO, […] crop oil concentrate, and X-77 surfactant in a 48.5:39:10:1.5:1.0:0.02 v/v ratio to obtain spray solutions containing the application rate. Compound requirements are based upon a 12 mL application volume at a rate of 187 liters per hectare (L/ha). Formulated compounds were applied to the plant material with an overhead Mandel track sprayer equipped with […] nozzles calibrated to deliver 187 L/ha over an application area of 0.64 square meters at a spray height of 18 inches (43 cm) above the average plant canopy height. Control plants were sprayed in the same manner with the solvent blank. The treated plants and control plants were placed in a greenhouse as described above and watered by subirrigation to prevent wash-off of the test compounds. After 14 d, the condition of the test plants as compared with that of the nontreated and control plants was determined visually and scored on a scale of 0 to 100 percent where 0 corresponds to no injury and 100 corresponds to complete control. In the reporting of the results, Table A: Percent Growth Reduction Conversion Table was used.

Setting [1] is: ALOMY: blackgrass (Alopecurus myosuroides), read-out: Visual Growth Reduction (%) 14 Days After Application, ALOMY.
Where [2] appears, read: AMARE: redroot pigweed (Amaranthus retroflexus), read-out: Visual Growth Reduction (%) 14 Days After Application, AMARE.
The mark [3] stands for this setting: AVEFA: wild oat (Avena fatua), read-out: Visual Growth Reduction (%) 14 Days After Application, AVEFA.
Setting [4] is: CHEAL: lambsquarters (Chenopodium album), read-out: Visual Growth Reduction (%) 14 Days After Application, CHEAL.
The mark [5] stands for this setting: CIRAR: canada thistle (Cirsium arvense), read-out: Visual Growth Reduction (%) 14 Days After Application, CIRAR.
The mark [6] stands for this setting: CYPES: yellow nutsedge (Cyperus esculentus), read-out: Visual Growth Reduction (%) 14 Days After Application, CYPES.
The mark [7] stands for this setting: DIGSA: crabgrass (Digitaria sanguinalis), read-out: Visual Growth Reduction (%) 14 Days After Application, DIGSA.
[8] abbreviates: ECHCG: barnyardgrass (Echinochloa crus-galli), read-out: Visual Growth Reduction (%) 14 Days After Application, ECHCG.
Setting [9] is: IPOHE: ivy-leaf morning glory (Ipomoea hederacea), read-out: Visual Growth Reduction (%) 14 Days After Application, IPOHE.
Setting [10] is: KCHSC: kochia (Bassia scoparia), read-out: Visual Growth Reduction (%) 14 Days After Application, KCHSC.
Setting [11] is: ORYSA: rice (Oryza sativa), read-out: Visual Growth Reduction (%) 14 Days After Application, ORYSA.
Setting [12] is: SETFA: giant foxtail (Setaria faberi), read-out: Visual Growth Reduction (%) 14 Days After Application, SETFA.
Where [13] appears, read: SORVU: grain sorghum (Sorghum vulgare), read-out: Visual Growth Reduction (%) 14 Days After Application, SORVU.
The mark [14] stands for this setting: STEME: common chickweed (Stellaria media), read-out: Visual Growth Reduction (%) 14 Days After Application, STEME.

Consider `COC(=O)c1nc(-c2ccc3c(c2)OC(F)(F)O3)ccc1Cl` [F64, Methyl 3-chloro-6-(2,2-difluorobenzo[d] [1,3]dioxol-5-yl) picolinate], for which the pest or weed control at 140 g/ha runs as follows: under setting [1], 0 to 29%; under setting [2], 45 to 59%; under setting [3], 0 to 29%; under setting [4], 60 to 74%; under setting [5], 0 to 29%; under setting [6], 60 to 74%. Besides, the pest or weed control at 140 g/ha under setting [7] fell in the range of 85 to 94%; the pest or weed control at 140 g/ha under setting [8] was in the range of 0 to 29%; the pest or weed control at 140 g/ha under setting [9] was 95 to 100%; the pest or weed control at 140 g/ha under setting [10] lay in the range of 0 to 29%; the pest or weed control at 140 g/ha under setting [11] was 0 to 29%; the pest or weed control at 140 g/ha under setting [12] was in the range of 0 to 29%. Besides, the pest or weed control at 140 g/ha by setting is: under setting [13], 60 to 74%; under setting [14], 0 to 29%; (TRZAS: wheat, spring (Triticum aestivum), read-out: Visual Growth Reduction (%) 14 Days After Application, TRZAS) 0 to 29%.
For the molecule `COC(=O)c1nc(-c2cc(F)c(Cl)cc2Cl)ccc1Cl` [F65, Methyl 3-chloro-6-(2,4-dichloro-5-fluorophenyl) picolinate], the pest or weed control at 140 g/ha under setting [1] fell in the range of 0 to 29%; the pest or weed control at 140 g/ha under setting [2] lay within 95 to 100%; the pest or weed control at 140 g/ha under setting [3] lay in the range of 0 to 29%; the pest or weed control at 140 g/ha under setting [4] lay in the range of 60 to 74%; the pest or weed control at 140 g/ha under setting [5] was in the range of 85 to 94%; the pest or weed control at 140 g/ha under setting [6] was in the range of 0 to 29%. The pest or weed control at 140 g/ha runs as follows: under setting [7], 95 to 100%; under setting [8], 60 to 74%; under setting [9], 95 to 100%; under setting [10], 0 to 29%; under setting [11], 30 to 44%; under setting [12], 85 to 94%. For the same molecule, the pest or weed control at 140 g/ha reads like this: under setting [13], 60 to 74%; under setting [14], 0 to 29%.
Consider `COC(=O)c1nc(-c2ccc(C(F)(F)F)cc2Cl)ccc1Cl` [F66, methyl 3-chloro-6-(2-chloro-4-(trifluoromethyl)phenyl)picolinate], for which the pest or weed control at 140 g/ha under setting [1] lay in the range of 45 to 59%; the pest or weed control at 140 g/ha under setting [2] lay within 95 to 100%; the pest or weed control at 140 g/ha under setting [3] is 60 to 74%; the pest or weed control at 140 g/ha under setting [4] was 85 to 94%; the pest or weed control at 140 g/ha under setting [5] is 95 to 100%; the pest or weed control at 140 g/ha under setting [6] lay in the range of 0 to 29%. The pest or weed control at 140 g/ha by setting is: under setting [7], 95 to 100%; under setting [8], 95 to 100%; under setting [9], 95 to 100%; under setting [10], 60 to 74%; under setting [11], 45 to 59%; under setting [12], 95 to 100%. Besides, the pest or weed control at 140 g/ha reads like this: under setting [13], 85 to 94%; under setting [14], 0 to 29%.
In the case of `O=C(O)c1nc(-c2ccc(Cl)c3c2OC(F)(F)O3)ccc1Cl` [F67, 3-Chloro-6-(7-chloro-2,2-difluorobenzo[d] [1,3]dioxol-4-yl) picolinic acid], the pest or weed control at 140 g/ha by setting is: under setting [1], 0 to 29%; under setting [2], 45 to 59%; under setting [3], 0 to 29%; under setting [4], 0 to 29%; under setting [5], 0 to 29%; under setting [6], 0 to 29%. Further, the pest or weed control at 140 g/ha lay within 0 to 29% under setting [7]; 0 to 29% under setting [8]; 0 to 29% under setting [9]; 0 to 29% under setting [10]; 0 to 29% under setting [11]; 0 to 29% under setting [12]. Also, the pest or weed control at 140 g/ha under setting [13] is 0 to 29%.
On to `COC(=O)c1nc(-c2ccc(Cl)c3c2OC(F)(F)O3)ccc1Cl` [F68, Methyl 3-chloro-6-(7-chloro-2,2-difluorobenzo[d] [1,3]dioxol-4-yl)picolinate], for which the pest or weed control at 140 g/ha runs as follows: under setting [1], 0 to 29%; under setting [2], 0 to 29%; under setting [3], 0 to 29%; under setting [4], 0 to 29%; under setting [5], 0 to 29%; under setting [7], 0 to 29%. The pest or weed control at 140 g/ha runs as follows: under setting [8], 0 to 29%; under setting [9], 0 to 29%; under setting [10], 0 to 29%; under setting [11], 0 to 29%; under setting [12], 0 to 29%; under setting [13], 0 to 29%. The pest or weed control at 140 g/ha under setting [14] is 0 to 29%.
Take `COC(=O)c1nc(-c2ccc3cc[nH]c3c2F)ccc1Cl` [F69, Methyl 3-chloro-6-(7-fluoro-1H-indol-6-yl)picolinate]: the pest or weed control at 140 g/ha was in the range of 0 to 29% under setting [1]; 0 to 29% under setting [2]; 0 to 29% under setting [3]; 0 to 29% under setting [4]; 0 to 29% under setting [5]; 0 to 29% under setting [6]. Besides, the pest or weed control at 140 g/ha reads like this: under setting [7], 0 to 29%; under setting [8], 0 to 29%; under setting [9], 0 to 29%; under setting [11], 0 to 29%; under setting [13], 0 to 29%; under setting [14], 0 to 29%.
With `O=C(O)c1nc(-c2ccc(Cl)c(F)c2F)ccc1Cl` [F70, 3-Chloro-6-(4-chloro-2,3-difluorophenyl) picolinic acid], the pest or weed control at 140 g/ha under setting [1] fell in the range of 0 to 29%; the pest or weed control at 140 g/ha under setting [2] lay in the range of 95 to 100%; the pest or weed control at 140 g/ha under setting [3] fell in the range of 0 to 29%; the pest or weed control at 140 g/ha under setting [4] lay within 95 to 100%; the pest or weed control at 140 g/ha under setting [5] fell in the range of 75 to 84%; the pest or weed control at 140 g/ha under setting [6] was in the range of 75 to 84%. Also, the pest or weed control at 140 g/ha by setting is: under setting [7], 60 to 74%; under setting [8], 45 to 59%; under setting [9], 85 to 94%; under setting [11], 0 to 29%; under setting [12], 30 to 44%; under setting [13], 85 to 94%. The pest or weed control at 140 g/ha under setting [14] is 60 to 74%.
Regarding `COC(=O)c1nc(-c2ccc(Cl)c(F)c2F)ccc1Cl` [F71, Methyl 3-chloro-6-(4-chloro-2,3-difluorophenyl) picolinate], the pest or weed control at 140 g/ha by setting is: under setting [1], 0 to 29%; under setting [2], 95 to 100%; under setting [3], 0 to 29%; under setting [4], 95 to 100%; under setting [5], 75 to 84%; under setting [6], 60 to 74%. Besides, the pest or weed control at 140 g/ha is 75 to 84% under setting [7]; 0 to 29% under setting [8]; 95 to 100% under setting [9]; 30 to 44% under setting [11]; 75 to 84% under setting [13]; 45 to 59% under setting [14].
